Results: PubChem BioAssay AID1117350 (Cheminformatics & Chemogenomics Research Group (CCRG), …, 2015)
The source made the active and inactive calls. How the calls were made is not given here.

Tested on: HeLa, chromatin condensation phenotype imaging
Assay: HeLa chromatin condensation increase, dose response, imaging, IC50 (AID 1117350)

Row | SMILES | IC50
1 | COc1cccc2c1C(=O)c1c(O)c3c(c(O)c1C2=O)C[C@@](O)(C(C)=O)C[C@@H]3O[C@H]1C[C@H](N)[C@H](O)[C@H](C)O1 | 0.374 µM
2 | Cc1ccc2nc(N)[nH]c(=O)c2c1Sc1ccncc1 | > 10 µM (inactive)
3 | Fc1ccc(C(OCCN2CCN(CCCc3ccccc3)CC2)c2ccc(F)cc2)cc1 | > 10 µM (inactive)
4 | CCCCC(CC)CN=C(N)NC(N)=NCCCCCCN=C(N)NC(N)=NCC(CC)CCCC (stereo not drawn) | > 10 µM (inactive)
5 | Cc1ccc2c(c1)c1c3n2CCNC3CCC1 (stereo not drawn) | > 10 µM (inactive)
6 | C[C@@]12C(=O)OC(=O)[C@]1(C)C1CCC2O1 | 8.5 µM (inactive)
7 | Nc1nc(=S)c2[nH]cnc2[nH]1 | > 10 µM (inactive)
8 | CC[C@@]1(O)C(=O)OCc2c1cc1n(c2=O)Cc2cc3c(CN(C)C)c(O)ccc3nc2-1 | > 10 µM (inactive)
9 | CCCCCCCCCCCC(=O)[O][Sn]([CH2]CCC)([CH2]CCC)[O]C(=O)CCCCCCCCCCC | > 10 µM (inactive)
10 | CC[C@@]1(O)C(=O)OCc2c1cc1n(c2=O)Cc2c-1nc1ccccc1c2/C=N/OC(C)(C)C | > 10 µM (inactive)
11 | CCCCCCCCCCCCCCCC[N+](C)(C)CCN(Cc1ccc(OC)cc1)c1ncccn1 | > 10 µM (inactive)
12 | CCN(CC)CCOc1ccccc1C(=O)CCc1ccccc1 | > 10 µM (inactive)
13 | CCCCCCCCCCCCNCCNCCNCC(=O)O | > 10 µM (inactive)
14 | CCCN(CCC)C(=O)C(CCC(=O)OCCCN1CCN(CCOC(=O)Cc2c(C)n(C(=O)c3ccc(Cl)cc3)c3ccc(OC)cc23)CC1)NC(=O)c1ccccc1 (stereo not drawn) | > 10 µM (inactive)
15 | COCCOC(=O)C1=C(C)NC(C)=C(C(=O)OC/C=C/c2ccccc2)C1c1cccc([N+](=O)[O-])c1 (stereo not drawn) | > 10 µM (inactive)
16 | O=C1c2c(O)cccc2Cc2cccc(O)c21 | > 10 µM (inactive)
17 | CN1CCCC(CC2c3ccccc3Sc3ccccc32)C1 (stereo not drawn) | > 10 µM (inactive)
18 | O=C(O)CN(CCN(CC(=O)O)CC(=O)O)CCN(CC(=O)O)CC(=O)O | > 10 µM (inactive)
19 | Nc1nc(=O)n([C@@H]2O[C@H](CO)[C@@H](O)[C@@H]2F)cc1I | > 10 µM (inactive)
20 | COC(=O)Nc1nc2ccc(Sc3ccccc3)cc2[nH]1 | 0.228 µM
21 | COc1ccc(/C=C/C(=O)c2ccc(OC)cc2OC)cc1 | > 10 µM (inactive)
22 | Oc1c(Cl)cc(Cl)cc1Sc1cc(Cl)cc(Cl)c1O | > 10 µM (inactive)
23 | O=C1C(=O)c2ccccc2C(O)=C1C1CCC(c2ccc(Cl)cc2)CC1 (stereo not drawn) | > 10 µM (inactive)
24 | CCCOc1ccc2nc(NC(=O)OC)[nH]c2c1 | 0.0775 µM
25 | CCCCCCCCCCCC[N+](C)(C)Cc1ccccc1 | > 10 µM (inactive)
26 | Clc1ccccc1C(c1ccccc1)(c1ccccc1)n1ccnc1 | > 10 µM (inactive)

Row | SMILES | IC50
27 | CC(C)=CCC/C(C)=C/CC/C(C)=C/C(=O)OCC(=O)[C@@]1(O)CC[C@H]2[C@@H]3CCC4=CC(=O)C=C[C@]4(C)[C@H]3[C@@H](O)C[C@@]21C | > 10 µM (inactive)
28 | COc1cc(NCc2ccc3nc(N)nc(N)c3c2C)cc(OC)c1OC | > 10 µM (inactive)
29 | CCC(=O)c1ccc(O)cc1 | > 10 µM (inactive)
30 | O=C1C(I)=CC(=C(c2cc(I)c(O)c(I)c2)c2ccccc2C(=O)O)C=C1I | > 10 µM (inactive)
31 | C[C@@H]1C[C@H]2[C@@H]3CCC4=CC(=O)C=C[C@]4(C)[C@@]3(Cl)[C@@H](O)C[C@]2(C)[C@@]1(OC(=O)c1ccco1)C(=O)CCl | > 10 µM (inactive)
32 | CC(=O)Nc1ccn(C2COC(COC(=O)c3ccccc3)O2)c(=O)n1 (stereo not drawn) | > 10 µM (inactive)
33 | COC(=O)c1nc(Cl)c(Cl)nc1N | 0.868 µM
34 | CCCCCCCCCCOCC(O)CN (stereo not drawn) | > 10 µM (inactive)
35 | Cc1cc(N)c2ccccc2[n+]1CCCCCCCCCC[n+]1c(C)cc(N)c2ccccc21 | > 10 µM (inactive)
36 | O=C(O)CCc1nc2ccccc2[nH]1 | > 10 µM (inactive)
37 | Cc1cc2c(C(C)C)c(O)c(O)c(C=O)c2c(O)c1-c1c(C)cc2c(C(C)C)c(O)c(O)c(C=O)c2c1O | > 10 µM (inactive)
38 | CCN(CC)CCOc1ccc(C(O)(Cc2ccc(Cl)cc2)c2ccc(C)cc2)cc1 (stereo not drawn) | > 10 µM (inactive)
39 | CN(C)CCOC(c1ccccc1)c1ccc(Br)cc1 (stereo not drawn) | > 10 µM (inactive)
40 | Oc1c(I)cc(Cl)c2cccnc12 | > 10 µM (inactive)
41 | CO[C@@H]1[C@@H](OC)[C@H](C)[C@@](O)(CC(=O)O)O[C@H]1[C@H](C)[C@H]1O[C@@]2(CC[C@@](C)([C@H]3CC[C@@](C)([C@@H]4O[C@@H]([C@H]5O[C@](C)(O)[C@H](C)C[C@@H]5C)C[C@@H]4OC4C[C@H](OC)[C@@H](OC)[C@H](C)O4)O3)O2)C[C@H](O)[C@H]1C (stereo partly drawn) | > 10 µM (inactive)
42 | Cn1cnc([N+](=O)[O-])c1Sc1ncnc2nc[nH]c12 | > 10 µM (inactive)
43 | O=Cc1ccc(O)c(O)c1O | > 10 µM (inactive)
44 | CN1CCC(Nc2ncc3ncnc(Nc4ccc(F)c(Cl)c4)c3n2)CC1 | > 10 µM (inactive)
45 | CCN(CC)CCNC(=O)c1c(C)[nH]c(/C=C2\C(=O)Nc3ccc(F)cc32)c1C | 3.81 µM
46 | Cc1nc2ccc(CN(C)c3ccc(C(=O)N[C@@H](CCC(=O)O)C(=O)O)s3)cc2c(=O)[nH]1 | > 10 µM (inactive)
47 | Cc1ccccc1C(OCCN(C)C)c1ccccc1 (stereo not drawn) | > 10 µM (inactive)
48 | CCCCCCCCCCCCCCCCNc1ccc(C(=O)O)cc1 | > 10 µM (inactive)
49 | CCN(CC)CCNc1ccc(CO)c2sc3ccccc3c(=O)c12 | > 10 µM (inactive)
50 | COc1ccc(-c2nc3ccc(C4=NNC(=O)CC4C)cc3[nH]2)cc1 (stereo not drawn) | > 10 µM (inactive)
51 | CC(=O)O[C@@]12CO[C@@H]1C[C@H](O)[C@@]1(C)C(=O)[C@H](O)C3=C(C)[C@@H](OC(=O)[C@H](O)[C@@H](NC(=O)OC(C)(C)C)c4ccccc4)C[C@@](O)([C@@H](OC(=O)c4ccccc4)[C@H]21)C3(C)C | 0.00317 µM
52 | COCc1c(C(C)C)nc(C(C)C)c(/C=C/[C@@H](O)C[C@@H](O)CC(=O)O)c1-c1ccc(F)cc1 | > 10 µM (inactive)

Row | SMILES | IC50
53 | S=c1nc[nH]c2nc[nH]c12 | > 10 µM (inactive)
54 | C=CC(=O)Nc1cc2c(Nc3ccc(F)c(Cl)c3)ncnc2cc1OCCCN1CCOCC1 | 4.29 µM
55 | O=[N+]([O-])c1ccc(O)c2ncccc12 | > 10 µM (inactive)
56 | COC(=O)Nc1nc2ccc(C(=O)c3cccs3)cc2[nH]1 | 0.0134 µM
57 | NCCCC[C@H](N[C@@H](CCc1ccccc1)C(=O)O)C(=O)N1CCC[C@H]1C(=O)O | > 10 µM (inactive)
58 | CCC(COC(=O)c1cc(OC)c(OC)c(OC)c1)(c1ccccc1)N(C)C (stereo not drawn) | > 10 µM (inactive)
59 | CC(=O)Oc1ccc(C2(c3ccc(OC(C)=O)cc3)Oc3ccccc3NC2=O)cc1 | > 10 µM (inactive)
60 | O=C1[C@H]2CCCC[C@H]2C(=O)N1CCCCN1CCN(c2nsc3ccccc23)CC1 | > 10 µM (inactive)
61 | COC(=O)[C@H]1[C@H]2C[C@@H]3c4[nH]c5cc(OC)ccc5c4CCN3C[C@H]2C[C@@H](OC(=O)/C=C/c2ccc(O)c(OC)c2)[C@@H]1OC | > 10 µM (inactive)
62 | CC(C)c1c(C(=O)Nc2ccccc2)c(-c2ccccc2)c(-c2ccc(F)cc2)n1CC[C@@H](O)C[C@@H](O)CC(=O)O | > 10 µM (inactive)
63 | Oc1c(Cl)cc(Cl)c2cccnc12 | > 10 µM (inactive)
64 | COc1c(C)c2c(c(O)c1C/C=C(\C)CCC(=O)OCCN1CCOCC1)C(=O)OC2 | > 10 µM (inactive)
65 | CC[C@H](C)C(=O)O[C@H]1C[C@@H](C)C=C2C=C[C@H](C)[C@H](CC[C@@H]3C[C@@H](O)CC(=O)O3)[C@H]21 | > 10 µM (inactive)
66 | O=C(O)c1ccc(-n2nc(-c3ccccc3O)nc2-c2ccccc2O)cc1 | > 10 µM (inactive)
67 | CCCCCCCCCCCCCCCC[N+](C)(C)Cc1ccccc1 | > 10 µM (inactive)
68 | O=C(CCl)c1ccc(Cl)cc1Cl | 0.541 µM
69 | COC(=O)Nc1nc2ccc(C(=O)c3ccccc3)cc2[nH]1 | 0.0648 µM
70 | CC[n+]1c(-c2ccccc2)c2cc(N)ccc2c2ccc(N)cc21 | > 10 µM (inactive)
71 | O=[N+]([O-])c1ccc(Oc2ccc(N=C=S)cc2)cc1 | > 10 µM (inactive)
72 | Cc1ccc([N+](=O)[O-])[c]2c1[O][Hg]2 | 1.22 µM
73 | CC(C)(C)C(=O)OCOP(=O)(COCCn1cnc2c(N)ncnc21)OCOC(=O)C(C)(C)C | > 10 µM (inactive)
74 | Nc1nc(Cl)nc2c1ncn2[C@@H]1O[C@H](CO)[C@@H](O)[C@@H]1F | > 10 µM (inactive)
75 | O=C(c1cc(O)c(O)c(O)c1)c1ccc(O)c(O)c1O | > 10 µM (inactive)
76 | Cc1nc2ccccc2n1Cc1ccc(Cl)cc1 | > 10 µM (inactive)
77 | CCCCCCNC(=O)n1cc(F)c(=O)[nH]c1=O | > 10 µM (inactive)
78 | C=C(C)[C@H]1Cc2c(ccc3c2O[C@@H]2COc4cc(OC)c(OC)cc4[C@@H]2C3=O)O1 | 0.223 µM
